Data published in patent US20130281463A1, “DIAZA-SPIRO[5.5]UNDECANES USEFUL AS OREXIN RECEPTOR ANTAGONISTS” (NOVARTIS AG, priority 2010, published 2013).
Where two headings read alike, the source gives them in different places.

What was measured:
human orexin 2 receptors [1] = target: T1, human orexin 2 receptors (Homo sapiens, UniProt O43614); test: Calcium accumulation in cells (FLIPR), hOx2R; format: cell-based; conditions: inhibition of orexin A induced calcium accumulation; Cheng and Prusoff correction
T1 construct: expressed in transfected cells
T1 sequence (O43614 1-444): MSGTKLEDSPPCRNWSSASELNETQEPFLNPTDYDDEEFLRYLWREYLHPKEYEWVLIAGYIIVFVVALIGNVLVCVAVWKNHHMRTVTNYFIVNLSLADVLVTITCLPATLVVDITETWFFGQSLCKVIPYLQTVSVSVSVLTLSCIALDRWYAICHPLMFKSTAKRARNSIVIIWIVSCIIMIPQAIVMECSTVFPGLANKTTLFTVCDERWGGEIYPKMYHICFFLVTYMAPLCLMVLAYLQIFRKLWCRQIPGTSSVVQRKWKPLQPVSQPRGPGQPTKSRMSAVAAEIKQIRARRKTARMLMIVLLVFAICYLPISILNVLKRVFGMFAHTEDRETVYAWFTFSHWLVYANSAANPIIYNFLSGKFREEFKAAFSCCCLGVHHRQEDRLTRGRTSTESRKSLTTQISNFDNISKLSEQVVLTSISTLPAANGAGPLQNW
Method: (§1) Cells expressing human orexin 1 or human orexin 2 receptors, were seeded at 8,000 cells/well in 384 well black-walled clear bottom, poly-D-lysine coated plates. After 24 h, the medium was removed and cells were washed once with phosphate buffered saline and serum-deprived overnight in assay buffer (130 mM NaCl, 5.4 mM KCl, 1.8 mM CaCl2, 0.8 mM MgSO4, 0.9 mM NaH2PO4, 25 mM glucose, 20 mM HEPES, pH 7.4) containing bovine serum albumin (1% w/v).
On the day of the experiment, the cells seeded in black plates were treated with assay buffer containing the Ca^2+ sensitive fluorescent dye Fluo4-AM (2 μM), and probenecid (0.1 mM). After 1 h plates were washed twice with, and resuspended in, assay buffer containing probenecid (0.1 mM) using a multi plate washer. […] Fluorescence measurements were then continued every 1 S for 120 S followed by every 4 S for 240 S.
(§2) Compounds of formula I were tested usually in a concentration range from 10^−9 M to 10^−5M.
(§3) In the second round, performed one hour later (to allow for equilibration), Orexin A was tested either in the absence (calibration curves, Orexin A agonist controls) or in the presence of compounds of formula I to determine antagonism.

human orexin 1 receptors [2] = target: T2, human orexin 1 receptors (Homo sapiens, UniProt O43613); test: Calcium accumulation in cells (FLIPR), hOx1R
T2 sequence (O43613 1-425): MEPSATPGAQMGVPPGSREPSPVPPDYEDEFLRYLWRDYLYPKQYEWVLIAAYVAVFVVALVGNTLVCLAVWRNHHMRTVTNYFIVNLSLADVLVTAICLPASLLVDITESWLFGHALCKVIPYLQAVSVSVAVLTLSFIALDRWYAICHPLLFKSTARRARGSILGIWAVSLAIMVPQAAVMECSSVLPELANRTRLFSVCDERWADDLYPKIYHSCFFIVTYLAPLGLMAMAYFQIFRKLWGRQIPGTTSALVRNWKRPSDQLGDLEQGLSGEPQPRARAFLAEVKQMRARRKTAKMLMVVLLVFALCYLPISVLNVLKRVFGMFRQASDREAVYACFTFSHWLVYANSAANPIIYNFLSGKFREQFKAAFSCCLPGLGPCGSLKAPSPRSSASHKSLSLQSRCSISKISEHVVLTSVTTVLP
Method: as §1
On the day of the experiment, the cells seeded in black plates were treated with assay buffer containing the Ca^2+ sensitive fluorescent dye Fluo4-AM (2 μM), and probenecid (0.1 mM). After 1 h plates were washed twice with, and resuspended in, assay buffer containing probenecid (0.1 mM) using a multi plate washer. The plates were placed into a FLIPR II (Fluorometric Imaging Plate Reader, Molecular Devices, Sunnyvale, Calif., USA) and baseline fluorescence (fluorescence light units, FLU) was measured (5 measurements, 2 S each; laser excitation 488 nm at 0.6-1 W, CCD camera exposure 0.4 s) before addition of buffer alone (basal) or containing test compounds (either compound of formula I alone, agonist alone or agonist in the presence of various concentrations of compounds of formula I). Fluorescence measurements were then continued every 1 S for 120 S followed by every 4 S for 240 S.
as §2, §3
Inhibition data is expressed in Table 2 as Ki [μM], converted by the Cheng and Prusoff correction (Ki=IC50/1+(L/EC50)), where IC50 is the 50% inhibition value determined in concentration response inhibition curves, EC50 is the half maximal activation concentration determined for orexin A in concentration response curves and L is the concentration of orexin A used in inhibition experiments performed in with a submaximal concentration of orexin A in the presence of up to 8 increasing concentrations of compound of formula I. Inhibition data is also expressed in Table 2 as % inhibition value measured at a concentration of 10 μM of selected compounds of formula I.

human orexin 2 receptors [3] = target: T1, human orexin 2 receptors; test: Radioligand binding assay ([3H]-SB649868 competition), hOx2R; conditions: competition with about 1 nM [3H]-SB649868, cell membranes
Method: For crude cell membrane preparations, cells (CHO, Chinese hamster ovary or HEK, human embryonic kidney) expressing human orexin 1 or human orexin 2 receptors, were washed with HEPES (10 mM, pH 7.5), scraped off the culture plates with the same buffer, and centrifuged at 4° C. for 5 min at 2500×g. The cell pellet was either stored at −80° C. or used directly. Before the experiments, cell membranes were re-suspended in binding assay buffer (10 mM HEPES, 0.5% (w/v) bovine serum albumin, pH 7.5) by homogenisation with a Polytron homogeniser at 50 Hz for 20 s.

human orexin 1 receptors [4] = target: T2, human orexin 1 receptors; test: Radioligand binding assay ([3H]-SB649868 competition), hOx1R; set-up: expressed in transfected cells; conditions: competition with about 1 nM [3H]-SB649868, cell membranes
Method: The cell pellet was either stored at −80° C. or used directly. Before the experiments, cell membranes were re-suspended in binding assay buffer (10 mM HEPES, 0.5% (w/v) bovine serum albumin, pH 7.5) by homogenisation with a Polytron homogeniser at 50 Hz for 20 s. Cell membranes were also used as made available by commercial providers.
Bound radioactivity was measured, and data were analysed with the program XLFIT or Graphpad Prism. Protein concentration was determined according to the Bradford/BioRad Protein Assay Kit.
In competition experiments, cell homogenates (150 μl) were incubated in assay buffer (10 mM HEPES, pH 7.5, 0.5% (w/v) bovine serum albumin, 5 mM MgCl2, 1 mM CaCl2, and tween 0.05%) for 1 h at room temperature with about 1 nM of the radioligand [^3H]-SB649868, 66 Ci/mmole, 50 μl), and with various concentrations of compounds of the invention (50 μl) in triplicates; non-specific binding was determined in the presence of almorexant (10 μM). Reactions were terminated by vacuum filtration, 3 washes of ice cold wash buffer (Tris-HCl pH 7.4/10 mM, with NaCl 154 mM). Competition data is expressed in Table 2 as Kd [μM].

[5] = read-out: FLIPR hOx1R Ki, inhibition of orexin A induced calcium accumulation, Cheng and Prusoff correction

Q: What does the source list for `Cc1cc(C)nc(N2CCC3(CCCN(Cc4ccccc4-c4nc(C)no4)C3=O)CC2)n1` [Example 1, 9-(4,6-dimethylpyrimidin-2-yl)-2-(2-(3-methyl-1,2,4-oxadiazol-5-yl)benzyl)-2,9-diazaspiro[5.5]undecan-1-one]?
A: Ki (human orexin 2 receptors [1]): 0.007 µM; Ki (human orexin 1 receptors [2]; [5]): 1.62 µM

Q: With `COc1ccnc(N2CCC3(CCCN(Cc4c[nH]c5ccccc45)C3=O)CC2)n1` [Example 13, 2-((1H-indol-3-yl)methyl)-9-(4-methoxypyrimidin-2-yl)-2,9-diazaspiro[5.5]undecan-1-one] as the molecule, how does the Ki (human orexin 2 receptors [1]) read?
A: 0.014 µM

Q: For `O=C1N(Cc2cccc3c2OCCO3)CCCC12CCN(c1cncc(Cl)n1)CC2` [Example 21, 9-(6-chloropyrazin-2-yl)-2-((2,3-dihydrobenzo[b][1,4]dioxin-5-yl)methyl)-2,9-diazaspiro[5.5]undecan-1-one], which Ki (human orexin 2 receptors [1]) is on record?
A: 0.247 µM

Q: And the inhibition at 10 µM (human orexin 1 receptors [2]; read-out: FLIPR hOx1R % inhibition value)?
A: 26%

Q: How did the Ki (human orexin 2 receptors [1]) turn out when `Cc1cc(C#N)nc(N2CCC3(CCCN(Cc4ccccc4-n4nccn4)C3=O)CC2)n1` [Example 25, 2-(2-(2-(2H-1,2,3-triazol-2-yl)benzyl)-1-oxo-2,9-diazaspiro[5.5]undecan-9-yl)-6-methylpyrimidine-4-carbonitrile] was run?
A: 0.068 µM

Q: And the Kd (human orexin 2 receptors [3])?
A: 0.389 µM

Q: What about the Kd (human orexin 1 receptors [4]) of the same molecule?
A: > 10 µM

Q: What about the Ki (human orexin 1 receptors [2]) of the same molecule?
A: 3.7 µM

Q: What does the source list for `COc1cncc(N2CCC3(CCCN(Cc4c[nH]c5ccccc45)C3=O)CC2)n1` [Example 82, 2-((1H-indol-3-yl)methyl)-9-(6-methoxypyrazin-2-yl)-2,9-diazaspiro[5.5]undecan-1-one]?
A: Ki (human orexin 2 receptors [1]): 0.057 µM; Kd (human orexin 2 receptors [3]): 3.16 µM; Kd (human orexin 1 receptors [4]): > 10 µM; Ki (human orexin 1 receptors [2]): 0.856 µM

Q: `COC(=O)c1ccc2[nH]cc(CN3CCCC4(CCN(c5nc(C)cc(C)n5)CC4)C3=O)c2c1` [Example 115, Methyl 3-((9-(4,6-dimethylpyrimidin-2-yl)-1-oxo-2,9-diazaspiro[5.5]undecan-2-yl)methyl)-1H-indole-5-carboxylate] was tested. Which Ki (human orexin 2 receptors [1]) did it give?
A: 0.0007 µM

Q: What about the Ki (human orexin 1 receptors [2]; [5]) of the same molecule?
A: 0.021 µM

Q: Which results are given for `COc1cc(-c2nn(C)nc2CN2CCCC3(CCN(c4nc(C)cc(C)n4)CC3)C2=O)ccn1` [Example 122, 9-(4,6-dimethylpyrimidin-2-yl)-2-((5-(2-methoxypyridin-4-yl)-2-methyl-2H-1,2,3-triazol-4-yl)methyl)-2,9-diazaspiro[5.5]undecan-1-one]?
A: Ki (human orexin 2 receptors [1]): 0.0014 µM; Kd (human orexin 2 receptors [3]): 0.014 µM; Kd (human orexin 1 receptors [4]): 0.13 µM; Ki (human orexin 1 receptors [2]): 0.176 µM
